Measured values: ChEMBL document CHEMBL1201862, “PubChem BioAssay data set” (2004)
Calls of active or inactive are those of the source.

Experiments:
[1] = target: Protein disulfide-isomerase (Homo sapiens, UniProt P07237); assay: PDI inhibitors, insulin aggregation turbidity, dose response, biochemical, absorbance, cherry-picked samples (AID 602350); type: functional
[2] = target: ADP-ribosylation factor GTPase-activating protein 1 (Rattus norvegicus, UniProt Q62848); assay: Fluorescence polarization-based biochemical high throughput dose response screening assay to identify inhibitors of ADP-ribosylation factor GTPase activating protein 1 (ARFGAP1).; type: functional
Chain of ADP-ribosylation factor GTPase-activating protein 1 (Q62848 whole entry, the tested form may be a part): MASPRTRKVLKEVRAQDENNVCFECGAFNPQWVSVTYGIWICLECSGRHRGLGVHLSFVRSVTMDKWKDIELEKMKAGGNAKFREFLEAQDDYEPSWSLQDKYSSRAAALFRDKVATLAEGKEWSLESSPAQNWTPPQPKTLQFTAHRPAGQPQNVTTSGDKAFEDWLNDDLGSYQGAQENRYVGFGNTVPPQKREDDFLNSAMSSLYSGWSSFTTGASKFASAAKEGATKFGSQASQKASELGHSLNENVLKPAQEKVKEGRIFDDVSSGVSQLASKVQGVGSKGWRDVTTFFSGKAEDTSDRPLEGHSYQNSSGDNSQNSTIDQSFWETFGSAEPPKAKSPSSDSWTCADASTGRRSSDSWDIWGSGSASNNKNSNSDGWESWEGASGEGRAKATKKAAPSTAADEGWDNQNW

[3] = CAL PDZ domain peptide-binding inhibitors, dose response, biochemical, fluorescence polarization, untagged CAL PDZ, cherry-pick, set 2 (AID 602254); type: functional
[4] = microbe, parasite or virus in culture; type: functional; settings: Mycobacterium tuberculosis
[5] = THP-1 cell cytotoxicity, dose response, cytotoxicity control for non-replicating M. tuberculosis project (AID 489025); type: functional
cells = type: functional
Estrogen receptor = target: T1, Estrogen receptor (Homo sapiens, UniProt P03372);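 note: potency for inhibiting coactivator peptide recruitment to the receptor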
T1 sequence (P03372 whole entry): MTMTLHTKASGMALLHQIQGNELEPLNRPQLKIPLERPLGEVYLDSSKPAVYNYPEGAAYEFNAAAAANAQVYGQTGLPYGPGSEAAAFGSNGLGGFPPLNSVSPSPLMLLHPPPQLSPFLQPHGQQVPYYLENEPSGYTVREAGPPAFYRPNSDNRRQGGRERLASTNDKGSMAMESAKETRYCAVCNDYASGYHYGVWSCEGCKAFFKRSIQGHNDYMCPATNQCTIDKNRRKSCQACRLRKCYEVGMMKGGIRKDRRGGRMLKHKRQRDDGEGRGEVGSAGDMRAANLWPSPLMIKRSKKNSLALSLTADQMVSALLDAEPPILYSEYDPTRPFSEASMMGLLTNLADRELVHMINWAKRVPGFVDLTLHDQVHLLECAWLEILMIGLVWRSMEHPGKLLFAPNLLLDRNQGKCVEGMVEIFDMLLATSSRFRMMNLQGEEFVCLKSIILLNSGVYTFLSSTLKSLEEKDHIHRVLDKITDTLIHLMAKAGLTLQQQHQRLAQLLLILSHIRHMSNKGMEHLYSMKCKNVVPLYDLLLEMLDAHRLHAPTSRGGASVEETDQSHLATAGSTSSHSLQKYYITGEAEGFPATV

Estrogen receptor beta [6] = target: T2, Estrogen receptor beta (Homo sapiens, UniProt Q92731);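 note: recombinant ER-beta bound to coactivator SRC1 peptide in presence of estradiol agonist; inhibitors block coactivator peptide binding and lower the FRET signal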
T2 sequence (Q92731 whole entry): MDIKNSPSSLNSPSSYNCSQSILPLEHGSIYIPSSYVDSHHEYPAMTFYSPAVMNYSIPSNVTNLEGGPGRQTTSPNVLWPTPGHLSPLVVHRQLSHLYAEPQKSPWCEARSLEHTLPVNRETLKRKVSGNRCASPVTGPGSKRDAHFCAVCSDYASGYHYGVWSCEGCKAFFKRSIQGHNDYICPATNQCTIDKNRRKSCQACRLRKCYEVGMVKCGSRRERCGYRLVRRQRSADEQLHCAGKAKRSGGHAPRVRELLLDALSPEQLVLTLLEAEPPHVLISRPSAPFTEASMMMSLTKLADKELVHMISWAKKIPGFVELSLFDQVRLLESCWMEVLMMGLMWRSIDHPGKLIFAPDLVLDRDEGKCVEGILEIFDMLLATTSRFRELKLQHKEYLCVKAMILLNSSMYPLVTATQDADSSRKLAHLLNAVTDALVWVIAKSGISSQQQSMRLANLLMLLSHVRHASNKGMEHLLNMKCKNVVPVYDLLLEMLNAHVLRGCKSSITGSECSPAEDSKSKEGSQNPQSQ

Estrogen receptor beta [7] = target: T2, Estrogen receptor beta; assay: ERβ–SRC-3 coactivator interaction inhibitors, confirmation, orthogonal assay, biochemical, ELISA, streptavidin-HRP readout (AID 1060)
[8] = target: T3, Carboxy-terminal domain RNA polymerase II polypeptide A small phosphatase 1 (Homo sapiens, UniProt Q9GZU7); assay: inhibitors of CTDSP1, concentration-response testing, biochemical assay, absorbance-based, actives from ultra-high-throughput screening (AID 540297); type: functional
T3 sequence (Q9GZU7 whole entry): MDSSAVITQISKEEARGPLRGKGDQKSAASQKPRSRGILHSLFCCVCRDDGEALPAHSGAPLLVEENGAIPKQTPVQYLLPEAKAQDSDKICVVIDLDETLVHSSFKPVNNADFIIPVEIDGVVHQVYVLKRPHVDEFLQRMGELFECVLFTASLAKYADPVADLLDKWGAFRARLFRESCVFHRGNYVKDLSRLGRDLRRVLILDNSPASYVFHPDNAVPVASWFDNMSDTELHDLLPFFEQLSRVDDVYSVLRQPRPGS

[9] = target: DNA (cytosine-5)-methyltransferase 1 (Homo sapiens, UniProt P26358); assay: DNMT1 methyltransferase inhibitors, confirmation, biochemical, fluorescent molecular beacon (AID 602386); type: functional
Chain of DNA (cytosine-5)-methyltransferase 1 (P26358 whole entry): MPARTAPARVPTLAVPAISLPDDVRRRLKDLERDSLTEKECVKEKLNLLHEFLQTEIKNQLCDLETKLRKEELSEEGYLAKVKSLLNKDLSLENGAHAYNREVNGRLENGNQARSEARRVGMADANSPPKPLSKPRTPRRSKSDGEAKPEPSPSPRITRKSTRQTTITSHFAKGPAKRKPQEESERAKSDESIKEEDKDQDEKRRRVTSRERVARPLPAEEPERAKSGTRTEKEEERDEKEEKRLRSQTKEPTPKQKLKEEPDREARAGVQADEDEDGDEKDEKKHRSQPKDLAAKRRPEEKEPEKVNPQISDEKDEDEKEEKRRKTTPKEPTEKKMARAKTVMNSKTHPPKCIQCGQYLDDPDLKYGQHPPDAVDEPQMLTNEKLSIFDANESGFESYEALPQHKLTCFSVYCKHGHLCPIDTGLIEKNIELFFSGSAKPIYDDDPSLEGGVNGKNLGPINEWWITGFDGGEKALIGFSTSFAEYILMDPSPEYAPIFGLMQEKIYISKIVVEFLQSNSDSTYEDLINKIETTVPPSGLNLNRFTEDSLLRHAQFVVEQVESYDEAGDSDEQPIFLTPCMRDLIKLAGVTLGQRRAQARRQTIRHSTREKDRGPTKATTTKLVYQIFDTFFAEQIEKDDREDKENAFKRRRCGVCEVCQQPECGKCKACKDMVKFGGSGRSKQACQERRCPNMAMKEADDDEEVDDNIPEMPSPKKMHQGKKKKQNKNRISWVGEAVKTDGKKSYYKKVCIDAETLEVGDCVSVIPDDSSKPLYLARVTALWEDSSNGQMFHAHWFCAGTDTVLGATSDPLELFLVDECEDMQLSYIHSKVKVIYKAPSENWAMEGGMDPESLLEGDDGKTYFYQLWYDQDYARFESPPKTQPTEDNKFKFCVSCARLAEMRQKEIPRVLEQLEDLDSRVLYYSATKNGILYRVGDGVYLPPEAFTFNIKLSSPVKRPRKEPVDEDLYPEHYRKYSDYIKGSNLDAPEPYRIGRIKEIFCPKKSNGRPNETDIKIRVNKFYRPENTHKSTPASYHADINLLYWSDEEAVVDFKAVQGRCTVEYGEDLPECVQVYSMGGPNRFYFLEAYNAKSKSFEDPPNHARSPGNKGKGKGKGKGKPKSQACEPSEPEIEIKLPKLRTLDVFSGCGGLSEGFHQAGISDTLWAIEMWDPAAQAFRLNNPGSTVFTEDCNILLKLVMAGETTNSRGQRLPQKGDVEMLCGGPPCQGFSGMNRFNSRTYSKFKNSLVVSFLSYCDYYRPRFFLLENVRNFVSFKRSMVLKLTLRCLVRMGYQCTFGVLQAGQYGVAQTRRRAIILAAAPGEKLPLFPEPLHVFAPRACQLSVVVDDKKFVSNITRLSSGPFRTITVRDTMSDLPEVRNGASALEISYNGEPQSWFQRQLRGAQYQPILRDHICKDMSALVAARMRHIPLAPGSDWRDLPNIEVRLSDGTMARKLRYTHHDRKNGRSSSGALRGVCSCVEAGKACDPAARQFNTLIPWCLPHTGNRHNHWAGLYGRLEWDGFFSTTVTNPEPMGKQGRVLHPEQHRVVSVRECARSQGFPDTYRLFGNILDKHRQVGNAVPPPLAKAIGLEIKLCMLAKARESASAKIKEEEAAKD

[10] = target: T4, Sentrin-specific protease 1 (Homo sapiens, UniProt Q9P0U3); assay: potency of human SENP1 inhibitors, dose response, biochemical, kinetic FRET (AID 651697); type: functional; settings: read-out: IC50_Mean
T4 sequence (Q9P0U3 whole entry, the tested form may be a part): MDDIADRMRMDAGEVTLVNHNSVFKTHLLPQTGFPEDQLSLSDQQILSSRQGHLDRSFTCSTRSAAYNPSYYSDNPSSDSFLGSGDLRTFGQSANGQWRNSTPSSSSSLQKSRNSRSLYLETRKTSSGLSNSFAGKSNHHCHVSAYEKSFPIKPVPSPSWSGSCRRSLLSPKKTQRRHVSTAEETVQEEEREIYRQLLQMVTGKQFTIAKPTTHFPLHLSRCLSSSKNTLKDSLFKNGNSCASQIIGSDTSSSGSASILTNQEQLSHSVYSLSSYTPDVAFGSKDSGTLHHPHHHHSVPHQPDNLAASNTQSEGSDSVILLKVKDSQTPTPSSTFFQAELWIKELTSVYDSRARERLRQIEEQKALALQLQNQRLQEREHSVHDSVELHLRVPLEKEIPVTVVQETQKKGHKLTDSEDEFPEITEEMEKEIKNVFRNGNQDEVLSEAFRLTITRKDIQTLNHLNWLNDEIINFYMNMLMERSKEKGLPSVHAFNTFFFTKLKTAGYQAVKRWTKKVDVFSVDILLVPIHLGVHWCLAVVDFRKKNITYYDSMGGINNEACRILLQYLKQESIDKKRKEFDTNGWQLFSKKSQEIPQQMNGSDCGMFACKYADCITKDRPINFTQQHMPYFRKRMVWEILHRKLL

[11] = target: T4, Sentrin-specific protease 1; assay: Dose response confirmation of small molecule inhibitors of the catalytic domain of the SUMO protease, SENP1 in a FRET assay.; type: functional; settings: read-out: IC50_Mean
Melanocortin receptor 4 = Melanocortin receptor 4 (Homo sapiens, UniProt P32245); assay: MC4R antagonist potency on cAMP, dose response, cell-based, TR-FRET, biased antagonists (AID 602298); type: functional;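 note: antagonist potency against agonist-stimulated cAMP production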
Chain of Melanocortin receptor 4 (P32245 whole entry): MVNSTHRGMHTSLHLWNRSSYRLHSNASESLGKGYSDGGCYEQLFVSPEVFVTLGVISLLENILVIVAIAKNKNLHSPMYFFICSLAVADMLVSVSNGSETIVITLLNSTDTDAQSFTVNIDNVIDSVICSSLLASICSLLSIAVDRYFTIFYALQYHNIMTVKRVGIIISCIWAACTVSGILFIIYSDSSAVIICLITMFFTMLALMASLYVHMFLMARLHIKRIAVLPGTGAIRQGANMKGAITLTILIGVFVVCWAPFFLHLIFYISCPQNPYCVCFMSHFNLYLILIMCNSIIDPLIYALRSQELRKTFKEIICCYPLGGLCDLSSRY

[12] = nonselective inhibitors of cellular cAMP signaling, dose response, counter-screen for MC4R biased antagonist project, cell-based, TR-FRET cAMP detection (AID 602305); type: functional;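 note: U2OS cells stimulated with forskolin near its EC80 as the cAMP inducer; potency is for inhibition of forskolin-stimulated cAMP signaling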
[13] = LGR2 antagonists, dose response, cell-based, HEK293, CRE-luciferase reporter, cherry pick, set 2 (AID 743343); type: functional;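 note: transfected cells were stimulated with diluted bursicon conditioned medium after compound addition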
[14] = MC4R antagonists, dose response, counter-screen for LGR2 antagonist project, cell-based, plate reader, cherry pick (AID 743444); type: functional;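 note: transfected HEK 293 cells stimulated with alpha-MSH peptide; potency of inhibitors of the alpha-MSH evoked signal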
[15] = HEK293 cell cytotoxicity, dose response, cytotoxicity control, plate reader, cherry-picked samples (AID 743446); type: functional, cell-based
[16] = target: T5, Apoptotic protease-activating factor 1 (Homo sapiens, UniProt O14727); assay: SAR analysis of small molecule Activators of Apaf-1 in a Fluorescent assay.; type: functional; settings: read-out: EC50_Mean;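 note: caspase-3 cleavage of fluorogenic Rh110 DEVD substrate downstream of apoptosome activation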
T5 sequence (O14727 whole entry): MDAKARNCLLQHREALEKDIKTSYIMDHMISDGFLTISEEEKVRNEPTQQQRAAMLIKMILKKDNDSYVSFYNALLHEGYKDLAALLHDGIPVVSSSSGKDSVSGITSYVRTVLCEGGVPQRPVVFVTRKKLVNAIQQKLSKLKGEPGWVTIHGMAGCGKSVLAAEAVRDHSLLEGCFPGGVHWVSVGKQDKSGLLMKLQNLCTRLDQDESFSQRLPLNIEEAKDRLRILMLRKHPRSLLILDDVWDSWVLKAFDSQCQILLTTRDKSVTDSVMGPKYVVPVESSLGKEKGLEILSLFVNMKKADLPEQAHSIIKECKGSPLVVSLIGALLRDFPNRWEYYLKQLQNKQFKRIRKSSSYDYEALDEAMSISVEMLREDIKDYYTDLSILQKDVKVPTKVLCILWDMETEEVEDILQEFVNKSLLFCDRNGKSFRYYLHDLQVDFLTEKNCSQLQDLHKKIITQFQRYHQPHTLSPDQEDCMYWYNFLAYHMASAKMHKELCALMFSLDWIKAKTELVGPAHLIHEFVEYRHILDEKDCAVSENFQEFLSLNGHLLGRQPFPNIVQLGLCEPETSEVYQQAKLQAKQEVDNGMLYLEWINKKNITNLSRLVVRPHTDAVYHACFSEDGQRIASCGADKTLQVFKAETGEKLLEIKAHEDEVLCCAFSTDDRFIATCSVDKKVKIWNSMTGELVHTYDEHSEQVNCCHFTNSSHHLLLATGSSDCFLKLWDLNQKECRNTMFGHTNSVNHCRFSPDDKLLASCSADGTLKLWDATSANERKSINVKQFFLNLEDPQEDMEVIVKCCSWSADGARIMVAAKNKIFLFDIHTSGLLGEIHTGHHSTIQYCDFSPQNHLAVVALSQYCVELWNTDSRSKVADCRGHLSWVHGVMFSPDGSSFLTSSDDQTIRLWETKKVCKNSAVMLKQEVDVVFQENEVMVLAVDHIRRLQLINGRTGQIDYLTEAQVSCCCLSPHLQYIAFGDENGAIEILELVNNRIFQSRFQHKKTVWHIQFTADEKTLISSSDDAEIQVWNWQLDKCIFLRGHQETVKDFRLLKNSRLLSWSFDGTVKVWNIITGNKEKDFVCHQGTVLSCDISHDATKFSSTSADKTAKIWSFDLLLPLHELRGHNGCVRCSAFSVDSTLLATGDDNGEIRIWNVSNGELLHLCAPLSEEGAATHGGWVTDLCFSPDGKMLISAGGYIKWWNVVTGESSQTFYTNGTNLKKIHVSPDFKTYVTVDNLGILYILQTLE

[17] = target: T6, Neuropeptides B/W receptor type 1 (Homo sapiens, UniProt P48145); assay: GPR7 antagonist potency, late-stage follow-up, cell-based, fluorescence, dose response, set 5 (AID 588566); type: functional
T6 sequence (P48145 whole entry): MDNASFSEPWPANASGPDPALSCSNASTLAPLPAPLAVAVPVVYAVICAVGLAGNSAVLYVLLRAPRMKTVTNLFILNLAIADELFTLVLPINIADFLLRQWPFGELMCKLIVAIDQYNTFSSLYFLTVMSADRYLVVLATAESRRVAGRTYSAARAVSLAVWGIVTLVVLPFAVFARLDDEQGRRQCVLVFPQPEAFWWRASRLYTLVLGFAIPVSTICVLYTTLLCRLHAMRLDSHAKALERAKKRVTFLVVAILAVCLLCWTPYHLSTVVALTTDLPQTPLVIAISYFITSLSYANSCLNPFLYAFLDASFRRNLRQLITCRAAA

[18] = target: Melanin-concentrating hormone receptor 1 (Homo sapiens, UniProt Q99705); assay: Late-stage fluorescence-based counterscreen for antagonists of the G-protein coupled receptor 7 (GPR7): cell-based dose response assay to identify antagonists of the melanin-concentrating hormone receptor 1 (MCHR1) Set 5.; type: functional
Chain of Melanin-concentrating hormone receptor 1 (Q99705 whole entry): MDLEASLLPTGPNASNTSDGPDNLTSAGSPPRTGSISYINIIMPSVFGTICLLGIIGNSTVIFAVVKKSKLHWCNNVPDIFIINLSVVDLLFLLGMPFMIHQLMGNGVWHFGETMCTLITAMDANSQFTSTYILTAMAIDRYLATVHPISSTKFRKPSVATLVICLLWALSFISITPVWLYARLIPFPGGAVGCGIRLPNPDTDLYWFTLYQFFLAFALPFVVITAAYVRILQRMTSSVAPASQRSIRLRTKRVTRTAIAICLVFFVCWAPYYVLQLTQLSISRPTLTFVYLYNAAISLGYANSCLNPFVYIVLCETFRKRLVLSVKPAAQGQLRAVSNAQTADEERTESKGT

[19] = target: T7, Low molecular weight phosphotyrosine protein phosphatase (Homo sapiens, UniProt P24666); type: functional; settings: read-out: IC50_Mean
T7 sequence (P24666 whole entry): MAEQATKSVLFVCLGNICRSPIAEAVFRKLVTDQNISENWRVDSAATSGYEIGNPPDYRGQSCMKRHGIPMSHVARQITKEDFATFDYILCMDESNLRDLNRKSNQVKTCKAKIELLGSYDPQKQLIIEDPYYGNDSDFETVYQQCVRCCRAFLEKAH

[20] = target: T7, Low molecular weight phosphotyrosine protein phosphatase; type: functional; settings: read-out: IC50_Mean; remark: listed apart in the source
[21] = target: T8, Tyrosine-protein phosphatase non-receptor type 22 (Homo sapiens, UniProt Q9Y2R2); assay: LYP phosphatase inhibition for selectivity, dose response, selectivity assay for LMPTP inhibitor project, biochemical, fluorescence, LYP catalytic domain (AID 652006); type: functional; settings: read-out: IC50_Mean
T8 sequence (Q9Y2R2 whole entry): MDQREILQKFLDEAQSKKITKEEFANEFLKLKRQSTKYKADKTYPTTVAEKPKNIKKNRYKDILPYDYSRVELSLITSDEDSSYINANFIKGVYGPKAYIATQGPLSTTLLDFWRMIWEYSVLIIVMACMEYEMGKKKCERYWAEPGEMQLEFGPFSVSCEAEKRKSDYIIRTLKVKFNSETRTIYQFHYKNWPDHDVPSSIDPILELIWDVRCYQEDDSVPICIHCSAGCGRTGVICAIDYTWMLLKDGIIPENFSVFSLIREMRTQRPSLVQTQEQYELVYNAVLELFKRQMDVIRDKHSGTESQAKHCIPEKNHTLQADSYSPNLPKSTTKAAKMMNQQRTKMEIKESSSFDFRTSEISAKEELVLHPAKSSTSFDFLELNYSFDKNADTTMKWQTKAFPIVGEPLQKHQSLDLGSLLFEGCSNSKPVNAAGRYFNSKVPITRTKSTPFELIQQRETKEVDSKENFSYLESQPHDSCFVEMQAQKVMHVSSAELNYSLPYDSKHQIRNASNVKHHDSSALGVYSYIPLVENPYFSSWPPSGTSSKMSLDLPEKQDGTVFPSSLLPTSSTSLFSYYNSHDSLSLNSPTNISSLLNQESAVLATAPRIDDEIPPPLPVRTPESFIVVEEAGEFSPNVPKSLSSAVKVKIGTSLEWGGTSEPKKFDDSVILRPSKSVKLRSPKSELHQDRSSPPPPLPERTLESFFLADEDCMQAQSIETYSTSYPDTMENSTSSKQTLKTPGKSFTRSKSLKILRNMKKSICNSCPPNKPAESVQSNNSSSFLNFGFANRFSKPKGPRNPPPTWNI

Albumin = Albumin (Bos taurus, UniProt P02769); assay: Counterscreen for inhibitors of T-cell receptor (TCR)-CD3 interaction: Fluorescence-based biochemical high throughput dose response assay to identify inhibitors of T-cell receptor (TCR)-CD3 interaction using a TAMRA-labeled BSA probe.; type: functional
Chain of Albumin (P02769 whole entry): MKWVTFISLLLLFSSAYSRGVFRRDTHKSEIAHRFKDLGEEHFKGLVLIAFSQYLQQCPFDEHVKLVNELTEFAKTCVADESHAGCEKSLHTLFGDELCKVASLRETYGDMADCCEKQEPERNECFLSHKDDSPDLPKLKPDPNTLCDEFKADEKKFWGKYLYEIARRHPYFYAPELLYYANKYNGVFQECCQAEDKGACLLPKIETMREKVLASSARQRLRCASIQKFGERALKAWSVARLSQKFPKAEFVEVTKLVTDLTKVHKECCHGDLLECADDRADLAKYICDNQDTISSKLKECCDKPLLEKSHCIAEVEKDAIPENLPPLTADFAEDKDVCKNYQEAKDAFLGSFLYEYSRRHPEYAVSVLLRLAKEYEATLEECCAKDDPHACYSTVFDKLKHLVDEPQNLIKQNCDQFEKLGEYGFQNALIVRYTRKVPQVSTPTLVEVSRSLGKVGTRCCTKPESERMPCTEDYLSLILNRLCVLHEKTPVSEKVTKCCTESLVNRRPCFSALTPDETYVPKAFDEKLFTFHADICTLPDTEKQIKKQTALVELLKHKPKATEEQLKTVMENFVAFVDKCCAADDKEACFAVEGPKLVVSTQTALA

Chain of Protein disulfide-isomerase (P07237 whole entry): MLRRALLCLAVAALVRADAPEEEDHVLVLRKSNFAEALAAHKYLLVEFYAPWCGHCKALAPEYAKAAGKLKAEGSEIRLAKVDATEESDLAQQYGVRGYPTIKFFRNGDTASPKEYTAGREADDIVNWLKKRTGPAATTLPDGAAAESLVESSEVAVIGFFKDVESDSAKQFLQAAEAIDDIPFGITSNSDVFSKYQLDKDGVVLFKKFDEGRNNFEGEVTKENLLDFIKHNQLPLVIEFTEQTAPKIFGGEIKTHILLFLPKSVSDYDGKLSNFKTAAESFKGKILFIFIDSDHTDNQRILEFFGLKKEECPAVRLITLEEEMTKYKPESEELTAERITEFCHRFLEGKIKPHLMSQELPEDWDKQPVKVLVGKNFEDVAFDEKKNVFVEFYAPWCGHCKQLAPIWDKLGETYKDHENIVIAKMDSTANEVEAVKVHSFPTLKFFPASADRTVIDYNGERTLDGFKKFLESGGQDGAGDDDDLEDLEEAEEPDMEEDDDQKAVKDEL

CC(C)(C)OC(=O)N[C@@H](Cc1c[nH]c2ccccc12)c1nnc(SCC(N)=O)o1
AC50 [1]: 19.5 µM (active)

Cc1ccc2nc3c(O)n(CC(=O)Nc4ccccc4N4CCN(C)CC4)ncc-3c2c1
IC50 [2]: 74 µM (inactive)

N#Cc1ccc(NC(=S)NCCN2CCOCC2)cc1
AC50 [3]: 107 µM (active)

CCc1cc(OCCCCNCc2ccccc2)ccc1Cl
CC50 [4]: > 40 µM (active)
CC50 [5]: > 40 µM (active)
IC50 (cells): 20.1 µM (active)
AC50 [1]: 10.6 µM (active)

Cc1ccnc(NS(=O)(=O)c2ccc(NC(=O)Cc3cccs3)cc2)n1
IC50 (Estrogen receptor): 12.2 µM (active)
IC50 (Estrogen receptor beta [6]): 3.09 µM (active)
IC50 (Estrogen receptor beta [7]): > 109 µM (not active)
IC50 [8]: 4.2 µM (active)
IC50 [9]: 9.16 µM (active)

Cc1ccc(-n2cc(-c3ccc([N+](=O)[O-])cc3)[nH]c2=S)c(C)c1
IC50 [10]: 54.1 µM (inactive)
IC50 [11]: 17.2 µM (active)

O=C(COC(=O)CNC(=O)c1ccc(Cl)cc1Cl)NCc1ccco1
IC50 (Melanocortin receptor 4): > 64.6 µM (inactive)
IC50 [12]: > 64.6 µM (inactive)

Cc1ccc2nc(-c3ccc(NC(=O)C(C)Sc4nncs4)cc3)sc2c1 (stereo not given)
IC50 (Melanocortin receptor 4): > 64.6 µM (inactive)
IC50 [12]: > 64.6 µM (inactive)
AC50 [13]: 5.56 µM (active)
AC50 [14]: 5.51 µM (active)
AC50 [15]: > 52 µM (inactive)

CCOc1ccccc1NC(=O)CCS(=O)(=O)c1cc2c(cc1Br)CCN2C(=O)CC
EC50 [16]: > 100 µM (inactive)

N#CC(c1ccccc1)c1c(Cl)cnn(Cc2cccc3ccccc23)c1=O (stereo not given)
IC50 [17]: 0.13 µM (active)
IC50 [18]: 7.61 µM (active)

COc1ccc(Oc2c(Cl)cnn(CC(=O)O)c2=O)cc1
IC50 [17]: > 20 µM (inactive)
IC50 [18]: > 20 µM (inactive)

O=C1C(=Cc2cn(-c3ccccc3)nc2-c2ccc(OCc3ccccc3)cc2)SC(=S)N1CCS(=O)(=O)O
IC50 [19]: 7.75 µM (active)
IC50 [20]: 7.03 µM (active)
IC50 [21]: 16.1 µM (active)
IC50 (Albumin): > 94.2 µM (inactive)
